One test concerns the target human orexin-2 receptor (Homo sapiens (Human), UniProt O43614). Put plainly: Human orexin 2 receptor radioligand binding ([3H]-EMPA competition). To be noted: HEK293 cells stably expressing human orexin-2 receptor; [3H]-EMPA 5 nM final; read-out: OR-2 Ki. How it is done: (§1) The in vitro affinity of the compounds for the human orexin-1 and orexin-2 receptors was determined by competitive radioligand binding using [^3H]SB SB674042 (1-(5-(2-fluoro-phenyl)-2-methyl-thiazol-4-yl)-1-((S)-2-(5-phenyl-(1,3,4)oxadiazol-2-ylmethyl)-pyrrolidin-1-yl)methanone) (Langmead et al., British Journal of Pharmacology 2004, 141:340-346.) and [^3H]EMPA (N-ethyl-2[(6-methoxy-pyridin-3-yl)-(toluene-2-sulfonyl)-amino]-N-pyridin-3-ylmethyl acetamide) (Malherbe et al., British Journal of Pharmacology, 2009, 156(8), 1326-1341), respectively.
Human Orexin 2 Receptor Radioligand Binding Studies
HEK293 stably expressing human orexin-2 receptor (Genebank accession number NM_001526) were grown to confluency in DMEM/F12 (Gibco, Cat #11039), in DMEM, 10% FBS, 1× Pen/Strep, 1× NaPyruvate, 1×HEPES, 600 ug/ml G418 media on 150 cm^2 tissue culture plates, washed with 5 mM EDTA in PBS (HyClone Dulbecco's Phosphate Buffered Saline 1× with Calcium and Magnesium, Cat #SH30264.01, hereafter referred to simply as PBS) and scraped into 50 ml tubes. After centrifugation (2K xG, 10 min at 4° C.), the supernatant was aspirated and the pellets frozen and stored at −80° C. Cells were resuspended in PBS in the presence of 1 tablet of protease inhibitor cocktail (Roche, Cat. #11836145001) per 50 mL. […] Competition binding experiments in 96 well polypropylene plates were performed using [^3H]-EMPA (Moravek Corporation, specific activity=27 Ci/mmol), diluted to a […] concentration in PBS (5 nM final concentration). Compounds were solubilized in 100% DMSO (Acros Organics, Cat. #61042-1000) and tested over a range of 7 concentrations (from 0.1 nM to 10 μM). The final concentration of DMSO in the reactions is equal to or less than 0.1%. Total and nonspecific binding was determined in the absence and presence of 10 μM (N-[2-(3,4-dimethoxyphenyl)ethyl]-N-methylnaphthalene-1-carboxamide, CAS Registry #1089563-88-1). The total volume of each reaction is 200 μL (20 μL of diluted compounds, 80 μL of [^3H]-EMPA diluted in PBS and 100 μL of the cell suspension). Reactions were run for 60 min at room temperature and terminated by filtration through GF/C filter plates (PerkinElmer, Cat. #6005174) presoaked in 0.3% polyethylenimine using the cell harvester (Perkin Elmer Filtermate). The plates were washed 3 times by aspirating 30 ml PBS through the plates. Plates were dried in 55° C. oven for 60 min, scintillation fluid was added, and the radioactivity was counted on a Topcount (Packard).

The next test deals with human orexin 1 receptor (Homo sapiens (Human), UniProt O43613). Put plainly: Human orexin 1 receptor radioligand binding ([3H]-SB674042 competition). To be noted: CHO cells stably expressing human orexin 1 receptor; [3H]-SB674042 4 nM final; read-out: OR-1 Ki. How it is done:
as §1
Human Orexin 1 Receptor Radioligand Binding Studies
Chinese ovary cells (CHO) stably expressing human orexin 1 receptor (Genebank accession number NM_001526) were grown to confluency in DMEM/F12 (Gibco, Cat #11039), 10% FBS, 1× Pen/Strep, 600 μg/mL G418 media on 150 cm^2 tissue culture plates, washed with 5 mM EDTA in PBS (HyClone Dulbecco's Phoshpate Buffered Saline 1× with Calcium and Magnesium, Cat #SH30264.01, hereafter referred to simply as PBS) and scraped into 50 ml tubes. After centrifugation (2K xG, 10 min at 4° C.), the supernatant was aspirated and the pellets frozen and stored at −80° C. Cells were resuspended in PBS in the presence of 1 tablet of protease inhibitor cocktail (Roche, Cat. #11836145001) per 50 mL. […] Compounds were solubilized in 100% DMSO (Acros Organics, Cat. #61042-1000) and tested over a range of 7 concentrations (from 0.1 nM to 10 μM). The final concentration of DMSO in the reactions is equal to or less than 0.1%. Total and nonspecific binding was determined in the absence and presence of 10 μM (1-(6,8-difluoro-2-methylquinolin-4-yl)-3-[4-(dimethylamino)phenyl]urea, CAS Registry #288150-92-5). The total volume of each reaction is 200 μL (20 μL of diluted compounds, 80 μL of [^3H]-SB674042 diluted in PBS and 100 μL of the cell suspension). Reactions were run for 60 min at room temperature and terminated by filtration through GF/C filter plates (PerkinElmer, Cat. #6005174) presoaked in 0.3% polyethylenimine using the cell harvester (PerkinElmer Filtermate). The plates were washed 3 times by aspirating 30 ml PBS through the plates. Plates were dried in 55° C. oven for 60 min, scintillation fluid was added, and the radioactivity was counted on a Topcount (Packard).

The text below walks through data of patent US8680275B2, “Fused heterocyclic compounds as orexin receptor modulators” (Janssen Pharmaceutica NV, priority 2009, dated 2014).

Sequence of human orexin-2 receptor (O43614 whole entry): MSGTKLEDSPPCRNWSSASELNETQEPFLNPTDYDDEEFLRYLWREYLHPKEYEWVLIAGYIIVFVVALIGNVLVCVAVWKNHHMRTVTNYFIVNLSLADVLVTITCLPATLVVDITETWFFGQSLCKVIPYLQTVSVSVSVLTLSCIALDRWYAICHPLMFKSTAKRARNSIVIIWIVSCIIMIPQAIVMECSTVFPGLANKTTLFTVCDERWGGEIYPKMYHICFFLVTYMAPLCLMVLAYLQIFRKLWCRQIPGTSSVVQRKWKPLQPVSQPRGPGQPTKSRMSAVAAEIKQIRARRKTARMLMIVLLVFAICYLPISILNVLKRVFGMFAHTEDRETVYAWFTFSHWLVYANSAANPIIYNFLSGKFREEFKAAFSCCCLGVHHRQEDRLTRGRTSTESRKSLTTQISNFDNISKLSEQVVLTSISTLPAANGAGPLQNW
Sequence of human orexin 1 receptor (O43613 whole entry): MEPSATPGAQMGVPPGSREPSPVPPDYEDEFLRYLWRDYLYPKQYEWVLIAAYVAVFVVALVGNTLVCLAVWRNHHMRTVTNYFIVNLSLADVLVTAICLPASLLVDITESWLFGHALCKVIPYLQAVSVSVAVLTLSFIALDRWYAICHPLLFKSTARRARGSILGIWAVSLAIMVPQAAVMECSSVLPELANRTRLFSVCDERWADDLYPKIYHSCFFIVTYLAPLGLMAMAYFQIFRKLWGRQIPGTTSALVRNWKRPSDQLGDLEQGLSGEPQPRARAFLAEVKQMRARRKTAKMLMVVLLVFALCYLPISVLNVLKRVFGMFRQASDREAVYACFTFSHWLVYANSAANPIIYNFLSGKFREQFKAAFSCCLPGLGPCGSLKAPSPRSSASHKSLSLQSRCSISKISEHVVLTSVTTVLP

As for `O=C(c1ccccc1-c1cccs1)N1C[C@@H]2CN(c3nccc(-c4ccccc4)n3)[C@@H]2C1` (single isomer, unassigned) [Example 55, 6-(4-Phenylpyrimidin-2-yl)-3-[(2-thiophen-2-ylphenyl)carbonyl]-3,6-diazabicyclo[3.2.0]heptane], the Ki (commonly the dissociation constant of the complex between target and ligand, obtained from inhibition or displacement) at human orexin-2 receptor was determined as 92 nM; at human orexin 1 receptor it was 274 nM. As to `O=C(c1ccccc1-c1cccs1)N1C[C@H]2CN(c3nccc(-c4ccccc4)n3)[C@H]2C1` (single isomer, unassigned) [Example 56, 6-(4-Phenylpyrimidin-2-yl)-3-[(2-thiophen-2-ylphenyl)carbonyl]-3,6-diazabicyclo[3.2.0]heptane], the values for the Ki on human orexin-2 receptor and at human orexin 1 receptor were 129 nM and 55 nM, respectively. As for `Cc1cc(C)nc(N2C[C@@H]3CCN(C(=O)c4ccccc4-c4cccs4)C[C@@H]32)n1` [Example 1, (1R,6S)[8-(4,6-Dimethyl-pyrimidin-2-yl)-3,8-diaza-bicyclo[4.2.0]oct-3-yl]-(2-thiophen-2-yl-phenyl)-methanone], the results for the Ki on human orexin-2 receptor and at human orexin 1 receptor were 4 nM and 64 nM, respectively. With `Cc1cc(C)nc(N2C[C@@H]3CCN(C(=O)c4ccccc4-c4ccco4)C[C@@H]32)n1` [Example 2, (1R,6S)[8-(4,6-Dimethyl-pyrimidin-2-yl)-3,8-diaza-bicyclo[4.2.0]oct-3-yl]-(2-furan-2-yl-phenyl)-methanone], the Ki at human orexin-2 receptor amounted to 4 nM. Consider `Cc1cc(C)nc(N2C[C@@H]3CCN(C(=O)c4ccccc4-c4ccccc4)C[C@@H]32)n1` [Example 3, (1R,6S)-Biphenyl-2-yl-[8-(4,6-dimethyl-pyrimidin-2-yl)-3,8-diaza-bicyclo[4.2.0]oct-3-yl]-methanone], for which the Ki at human orexin-2 receptor was 8 nM; at human orexin 1 receptor, 169 nM. `O=C(c1ccccc1-c1cccs1)N1CC[C@H]2CN(c3cnc4ccccc4n3)[C@H]2C1` [Example 4, (1R,6S)(8-Quinoxalin-2-yl-3,8-diaza-bicyclo[4.2.0]oct-3-yl)-(2-thiophen-2-yl-phenyl)-methanone]: on human orexin-2 receptor, the Ki was found to be 7 nM. On to `O=C(c1ccccc1-c1ccco1)N1CC[C@H]2CN(c3cnc4ccccc4n3)[C@H]2C1` [Example 6, (1R,6S)(2-Furan-2-yl-phenyl)-(8-quinoxalin-2-yl-3,8-diaza-bicyclo[4.2.0]oct-3-yl)-methanone], for which the Ki came to 20 nM at human orexin-2 receptor and 18 nM on human orexin 1 receptor.

`Cc1cc(C)nc(N2C[C@@H]3CCN(C(=O)c4ccccc4-n4cccc4)C[C@@H]32)n1` [Example 7, (1R,6S)[8-(4,6-Dimethyl-pyrimidin-2-yl)-3,8-diaza-bicyclo[4.2.0]oct-3-yl]-(2-pyrrol-1-yl-phenyl)-methanone]: the Ki stood at 15 nM at human orexin-2 receptor and 371 nM at human orexin 1 receptor. For the molecule `O=C(c1ccccc1-c1ccccc1)N1CCC2CN(c3nccc(-c4ccccc4)n3)C2C1` (stereo not shown) [Example 9, Biphenyl-2-yl-[8-(4-phenyl-pyrimidin-2-yl)-3,8-diaza-bicyclo[4.2.0]oct-3-yl]-methanone], the Ki stood at 33 nM at human orexin-2 receptor and 22 nM on human orexin 1 receptor. The matching figures for `Cc1ccc(-c2ccccc2C(=O)N2CC[C@H]3CN(c4cnc5ccccc5n4)[C@H]3C2)cc1` [Example 10, (1R,6S)(4′-Methyl-biphenyl-2-yl)-(8-quinoxalin-2-yl-3,8-diaza-bicyclo[4.2.0]oct-3-yl)-methanone]: 44 nM and 18 nM. In the case of `CCOc1ccc2ccccc2c1C(=O)N1CC[C@H]2CN(c3nc(C)cc(C)n3)[C@H]2C1` [Example 24, (1R,6S)[8-(4,6-Dimethyl-pyrimidin-2-yl)-3,8-diaza-bicyclo[4.2.0]oct-3-yl]-(2-ethoxy-naphthalen-1-yl)-methanone], on human orexin-2 receptor, the Ki turned out to be 6 nM.

Consider `Cc1cc(C)nc(N2C[C@@H]3CCN(C(=O)c4ccccc4-n4nccn4)C[C@@H]32)n1` [Example 25, (1R,6S)-[8-(4,6-Dimethyl-pyrimidin-2-yl)-3,8-diaza-bicyclo[4.2.0]oct-3-yl]-(2-[1,2,3]triazol-2-yl-phenyl)-methanone], for which, at human orexin 1 receptor, the Ki worked out at 416 nM. As for `O=C(c1cc(F)ccc1-c1ncccn1)N1CC[C@H]2CN(c3cnc4ccccc4n3)[C@H]2C1` [Example 33, (1R,6S)(5-Fluoro-2-pyrimidin-2-yl-phenyl)-(8-quinoxalin-2-yl-3,8-diaza-bicyclo[4.2.0]oct-3-yl)-methanone], the Ki on human orexin-2 receptor came out at 51 nM. Turning to `Cc1cc(C)nc(N2C[C@@H]3CCN(C(=O)c4cc(F)ccc4-n4nccn4)C[C@@H]32)n1` [Example 41, (1R,6S)-[8-(4,6-Dimethyl-pyrimidin-2-yl)-3,8-diaza-bicyclo[4.2.0]oct-3-yl]-(5-fluoro-2-[1,2,3]triazol-2-yl-phenyl)-methanone], on human orexin 1 receptor, the Ki was found to be 441 nM. As for `Cc1cc(N2C[C@@H]3CCN(C(=O)c4cc(F)ccc4-n4nccn4)C[C@@H]32)nc(C(F)(F)F)n1` [Example 42, (1R,6S)-(5-Fluoro-2-[1,2,3]triazol-2-yl-phenyl)-[8-(6-methyl-2-trifluoromethyl-pyrimidin-4-yl)-3,8-diaza-bicyclo[4.2.0]oct-3-yl]-methanone], on human orexin-2 receptor, the Ki came out at 34 nM.

As for `Cc1cc(N2C[C@@H]3CCN(C(=O)c4ccc(F)cc4-n4nccn4)C[C@@H]32)nc(N(C)C)n1` [Example 45, (1R,6S)-[8-(2-Dimethylamino-6-methyl-pyrimidin-4-yl)-3,8-diaza-bicyclo[4.2.0]oct-3-yl]-(4-fluoro-2-[1,2,3]triazol-2-yl-phenyl)-methanone], at human orexin 1 receptor, the Ki came out at 697 nM. Regarding `Cc1nccnc1N1C[C@@H]2CCN(C(=O)c3cc(F)ccc3-n3nccn3)C[C@@H]21` [Example 107, (1R,6S)-3-{[5-Fluoro-2-(2H-1,2,3-triazol-2-yl)phenyl]carbonyl}-8-(3-methylpyrazin-2-yl)-3,8-diazabicyclo[4.2.0]octane], at human orexin 1 receptor, the Ki came to 10000 nM. For `Cc1nccnc1N1C[C@@H]2CCN(C(=O)c3cccc(F)c3-n3nccn3)C[C@@H]21` [Example 109, (1R,6S)-3-{[3-Fluoro-2-(2H-1,2,3-triazol-2-yl)phenyl]carbonyl}-8-(3-methylpyrazin-2-yl)-3,8-diazabicyclo[4.2.0]octane], the Ki on human orexin-2 receptor was 10000 nM.

As for `COc1cnc(C)nc1C(=O)N1CC[C@H]2CN(c3nc(C)cc(C)n3)[C@H]2C1` [Example 136, (1R,6S)-8-(4,6-Dimethylpyrimidin-2-yl)-3-[(5-methoxy-2-methylpyrimidin-4-yl)carbonyl]-3,8-diazabicyclo[4.2.0]octane], the Ki on human orexin 1 receptor turned out to be 10000 nM.

In the case of `Cc1cc(C)nc(N2C[C@@H]3CCN(C(=O)c4ccccc4-c4ncn[nH]4)C[C@@H]32)n1` [Example 172, (1R,6S)-8-(4,6-Dimethylpyrimidin-2-yl)-3-{[2-(1H-1,2,4-triazol-5-yl)phenyl]carbonyl}-3,8-diazabicyclo[4.2.0]octane], the Ki at human orexin-2 receptor was 48 nM.
